Results published in patent US12583839B2, “PD-L1 antagonist compound” (ADLAI NORTYE BIOPHARMA CO., LTD., priority 2019, dated 2026).
pEC50: −log10 of the molar value.

Target: T1, PD-1/PD-L1 (Homo sapiens, UniProt Q9NZQ7)
T1 construct: 60535 (PD-1/NFAT-Reporter-Jurkat); host or cells: CHO cells expressing PD-L1; Jurkat cells expressing PD-1
Test: Detection of biological activity of PD-1/PD-L1 signaling inhibition at the cellular level (NFAT luciferase reporter, PD-1/NFAT-Reporter-Jurkat cells co-cultured with TCR activator/PD-L1-CHO cells)
Assay type: cell-based
Conditions: PD-1/NFAT-Reporter-Jurkat + TCR activator/PD-L1-CHO co-culture, 6 hours; Atezolizumab as positive control
Text: Detection of Biological Activity of PD-1/PD-L1 Signaling Inhibition at the Cellular Level
This detection method is used for evaluating the biological activity of the compounds described in the present invention at the cellular level.
This detection method uses the luciferase reporter gene method to detect the biological activity of the compound on the inhibition of PD-1/PD-L1 signal at the cellular level. PD-1/NFAT—Reporter—Jurkat cells stably express human PD-1 and express the luciferase reporter gene regulated by NFAT elements; TCR activator/PD-L1-CHO cells stably express human PD-L1 and TCR activator elements. When the two cell lines were co-cultured, the binding of PD-1/PD-L1 inhibited the TCR signaling pathway, thereby inhibiting the expression of the downstream NFAT-controlled luciferase reporter gene. When PD-1/PD-L1 antibody or inhibitor is added, this inhibitory effect is reversed and luciferase is expressed, so that the effect of PD-1/PD-L1 inhibitor on luciferase activity can be detected.
PD-1/NFAT—Reporter—Jurkat cell (Cat: 60535) and TCR activator/PD-L1-CHO cell (Cat: 60536) were purchased from BPS Bioscience. Anti-human PD-L1 antibody (Atezolizumab, Cat: A2004) was purchased from Selleck; luciferase reporter gene expression detection kit (ONE-Glo™ Luciferase Assay System, Cat: E6120) was purchased from Promega; multifunction plate reader (SpectraMax i3x) was purchased from Molecular Devices.
The PD-1/NFAT—Reporter—Jurkat cells and TCR activator/PD-L1-CHO cells were cultured according to the routine cell culture protocol.
TCR activator/PD-L1-CHO cells were harvested and seeded into a 96-well culture plate at 35,000 cells/well in a medium volume of 100 μl and incubated overnight at 37° C. The next day, the medium was discarded, compound was added and incubated for 30 minutes, while a solvent control (dimethyl sulfoxide, DMSO, final concentration of 0.1%) and PD-L1 antibody (Atezolizumab, final concentration of about 10 nM) as positive controls were set. PD-1/NFAT-reporter-Jurkat cells were then added. After culturing for 6 hours, the luciferase activity was detected according to the instructions of the luciferase detection reagent.
Using PD-L1 antibody as a positive control, calculate the inhibition rate of PD-1/PD-L1 binding of the test compound (%)=(chemiluminescence value of compound treated wells/average value of chemiluminescence value of solvent control wells−1)/(average value of chemiluminescence value of PD-L1 antibody well/average value of chemiluminescence value of solvent control well−1)×100%.
According to the above detection method, the compounds of the present invention were evaluated for their biological activity at the cellular level, and the activity results are shown in the following table.

T1 sequence (Q9NZQ7 19-290): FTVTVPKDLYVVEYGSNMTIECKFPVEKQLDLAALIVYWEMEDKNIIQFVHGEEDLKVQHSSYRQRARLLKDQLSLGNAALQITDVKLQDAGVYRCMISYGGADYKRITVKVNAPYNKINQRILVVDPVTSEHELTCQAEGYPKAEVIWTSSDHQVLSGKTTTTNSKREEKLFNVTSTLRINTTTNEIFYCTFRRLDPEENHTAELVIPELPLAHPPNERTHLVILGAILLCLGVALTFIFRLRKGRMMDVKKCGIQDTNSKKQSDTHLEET

pEC50	Structure (SMILES)
7.08	N#Cc1cncc(COc2cc(Cn3ncc4c(-c5cccc(-c6ccc(CN7CC[C@@H](O)C7)cc6)c5Cl)cccc43)c(Cl)cc2CN[C@@H](CO)C(=O)O)c1 [Compound 1]
7.07	Cc1c(-c2ccc(CNC[C@@H]3CCC(=O)N3)cc2)cccc1-c1cccc2c1cnn2Cc1cc(OCc2cncc(C#N)c2)c(CN[C@@H](CO)C(=O)O)cc1Cl [Compound 2]
6.40	N#Cc1cncc(COc2cc(Cn3ncc4c(-c5cccc(-c6ccc(CN7CCOCC7)cc6)c5Cl)cccc43)c(Cl)cc2CN[C@@H](CO)C(=O)O)c1 [Compound 3]
6.69	CN(CCO)Cc1ccc(-c2cccc(-c3cccc4c3cnn4Cc3cc(OCc4cncc(C#N)c4)c(CN[C@@H](CO)C(=O)O)cc3Cl)c2Cl)cc1 [Compound 4]
7.24	N#Cc1cncc(COc2cc(Cn3ncc4c(-c5cccc(-c6ccc(CNCCO)cc6)c5Cl)cccc43)c(Cl)cc2CN[C@@H](CO)C(=O)O)c1 [Compound 5]
6.64	CN(CCO[C@H]1CCOC1)Cc1ccc(-c2cccc(-c3cccc4c3cnn4Cc3cc(OCc4cncc(C#N)c4)c(CN[C@@H](CO)C(=O)O)cc3Cl)c2Cl)cc1 [Compound 6]
6.79	CN1C(=O)CC[C@H]1CNCc1ccc(-c2cccc(-c3cccc4c3cnn4Cc3cc(OCc4cncc(C#N)c4)c(CN[C@@H](CO)C(=O)O)cc3Cl)c2Cl)cc1 [Compound 7]
7.51	COc1cc(-c2cccc(-c3cccc4c3cnn4Cc3cc(OCc4cncc(C#N)c4)c(CN[C@@H](CO)C(=O)O)cc3Cl)c2Cl)ccc1CNC[C@@H]1CCC(=O)N1 [Compound 8]
6.23	N#Cc1cncc(COc2cc(Cn3ncc4c(-c5cccc(-c6ccc(CNC[C@@H]7CCC(=O)N7)cn6)c5Cl)cccc43)c(Cl)cc2CN[C@@H](CO)C(=O)O)c1 [Compound 9]
7.09	N#Cc1cncc(COc2cc(Cn3ncc4c(-c5cccc(-c6ccc(CNC[C@@H]7CCC(=O)N7)nc6)c5Cl)cccc43)c(Cl)cc2CN[C@@H](CO)C(=O)O)c1 [Compound 10]
6.95	COc1cc(CNC[C@@H]2CCC(=O)N2)ccc1-c1cccc(-c2cccc3c2cnn3Cc2cc(OCc3cncc(C#N)c3)c(CN[C@@H](CO)C(=O)O)cc2Cl)c1Cl [Compound 11]
6.59	N#Cc1cncc(COc2cc(Cn3ncc4c(-c5cccc(-c6ccc(CNC[C@@H]7CCC(=O)N7)cc6)c5F)cccc43)c(Cl)cc2CN[C@@H](CO)C(=O)O)c1 [Compound 12]
6.94	N#Cc1cncc(COc2cc(Cn3ncc4c(-c5cccc(-c6ccc(CNC[C@@H]7CCC(=O)N7)cc6)c5C#N)cccc43)c(Cl)cc2CN[C@@H](CO)C(=O)O)c1 [Compound 13]
6.47	N#Cc1cncc(COc2cc(Cn3ncc4c(-c5cccc(-c6ccc(CNC[C@@H]7CCC(=O)N7)cc6)c5)cccc43)c(Cl)cc2CN[C@@H](CO)C(=O)O)c1 [Compound 14]
6.25	N#Cc1cncc(COc2cc(Cn3ncc4c(-c5cccc(-c6ccc(CCN7CC[C@@H](O)C7)cc6)c5Cl)cccc43)c(Cl)cc2CN[C@@H](CO)C(=O)O)c1 [Compound 18]
6.29	N#Cc1cncc(COc2cc(Cn3ncc4c(-c5cccc(-c6ccc(CCCN7CC[C@@H](O)C7)cc6)c5Cl)cccc43)c(Cl)cc2CN[C@@H](CO)C(=O)O)c1 [Compound 19]
7.05	N#Cc1cncc(COc2cc(Cn3ncc4c(-c5cccc(-c6ccc(CNC[C@@H]7CCC(=O)N7)cc6)c5Cl)cccc43)c(Cl)cc2CNCC(=O)O)c1 [Compound 22]
6.29	CC(C)OC(=O)[C@H](CO)NCc1cc(Cl)c(Cn2ncc3c(-c4cccc(-c5ccc(CNC[C@@H]6CCC(=O)N6)cc5)c4Cl)cccc32)cc1OCc1cncc(C#N)c1 [Compound 23]
7.27	N#Cc1cncc(COc2cc(Cn3ncc4c(-c5cccc(-c6ccc(CNC[C@@H]7CCC(=O)N7)cc6)c5Cl)cccc43)c(Cl)cc2CNCCO)c1 [Compound 24]
6.89	N#Cc1cncc(COc2cc(Cn3ncc4c(-c5cccc(-c6ccc(CNC[C@@H]7CCC(=O)N7)cc6)c5Cl)cccc43)c(Cl)cc2CN2CCC[C@H]2C(=O)O)c1 [Compound 25]
7.07	CN(Cc1cc(Cl)c(Cn2ncc3c(-c4cccc(-c5ccc(CNC[C@@H]6CCC(=O)N6)cc5)c4Cl)cccc32)cc1OCc1cncc(C#N)c1)[C@@H](CO)C(=O)O [Compound 26]
6.88	N#Cc1cncc(COc2cc(Cn3ncc4c(-c5cccc(-c6ccc(CNC[C@@H]7CCC(=O)N7)cc6)c5Cl)cccc43)c(Cl)cc2CN2CC[C@@H](C(=O)O)C2)c1 [Compound 27]

pEC50	Structure (SMILES)
6.96	COc1cc(-c2cccc(-c3cccc4c3cnn4Cc3cc(OCc4cncc(C#N)c4)c(CN[C@@H](CO)C(=O)OC(C)C)cc3Cl)c2Cl)ccc1CNC[C@@H]1CCC(=O)N1 [Compound 28]
7.18	COc1nc(-c2cccc(-c3cccc4c3cnn4Cc3cc(OCc4cncc(C#N)c4)c(CNCCO)cc3Cl)c2Cl)ccc1CNC[C@@H]1CCC(=O)N1 [Compound 29]
7.09	COc1cc(Cn2ncc3c(-c4cccc(-c5ccc(CNC[C@@H]6CCC(=O)N6)cc5)c4Cl)cccc32)c(Cl)cc1CN[C@@H](CO)C(=O)O [Compound 30]
7.09	COc1cc(Cn2ncc3c(-c4cccc(-c5ccc(CNC[C@@H]6CCC(=O)N6)cc5)c4Cl)cccc32)c(Cl)cc1CNC[C@H](O)CC(=O)O [Compound 31]
6.61	COc1cc(Cn2ncc3c(-c4cccc(-c5ccc(CNC[C@@H]6CCC(=O)N6)cc5)c4Cl)cccc32)c(Cl)cc1CNCC(=O)O [Compound 32]
6.29	COc1cc(Cn2ncc3c(-c4cccc(-c5ccc(CNC[C@@H]6CCC(=O)N6)cc5)c4Cl)cccc32)c(Cl)cc1CN1CC[C@@H](C(=O)O)C1 [Compound 33]
6.07	COc1cc(Cn2ncc3c(-c4cccc(-c5ccc(CNC[C@@H]6CCC(=O)N6)cc5)c4Cl)cccc32)c(Cl)cc1CN1CCC[C@@H](C(=O)O)C1 [Compound 35]
6.34	COc1cc(Cn2ncc3c(-c4cccc(-c5ccc(CNC[C@@H]6CCC(=O)N6)cc5)c4Cl)cccc32)c(Cl)cc1CN1CCC[C@H](C(=O)O)C1 [Compound 36]
6.01	COc1cc(Cn2ncc3c(-c4cccc(-c5ccc(CNC[C@@H]6CCC(=O)N6)cc5)c4Cl)cccc32)c(Cl)cc1CN1CCC(C(=O)O)CC1 [Compound 37]
6.09	COc1cc(Cn2ncc3c(-c4cccc(-c5ccc(CNC[C@@H]6CCC(=O)N6)cc5)c4Cl)cccc32)c(Cl)cc1CN1CC(C(=O)O)C1 [Compound 38]
6.53	COc1cc(Cn2ncc3c(-c4cccc(-c5ccc(CNC[C@@H]6CCC(=O)N6)cc5)c4Cl)cccc32)c(Cl)cc1CNCC1CCC(C(=O)O)CC1 (stereo partly shown) [Compound 39]
6.67	COc1cc(Cn2ncc3c(-c4cccc(-c5ccc(CNC[C@@H]6CCC(=O)N6)cc5)c4Cl)cccc32)c(Cl)cc1CNC1CCC(C(=O)O)CC1 (stereo partly shown) [Compound 40]
6.53	COc1cc(Cn2ncc3c(-c4cccc(-c5ccc(CNC[C@@H]6CCC(=O)N6)cc5)c4Cl)cccc32)c(Cl)cc1CNC1CCC(C(=O)O)CC1 (stereo partly shown) [Compound 41]
6.46	COc1cc(Cn2ncc3c(-c4cccc(-c5ccc(CNC[C@@H]6CCC(=O)N6)cc5)c4Cl)cccc32)c(Cl)cc1CN1C[C@H](O)C[C@H]1C(=O)O [Compound 42]
6.27	COc1cc(Cn2ncc3c(-c4cccc(-c5ccc(CNC[C@@H]6CCC(=O)N6)cc5)c4Cl)cccc32)c(Cl)cc1CN1CCC[C@H]1C(=O)O [Compound 43]
6.30	COc1cc(Cn2ncc3c(-c4cccc(-c5ccc(CNC[C@@H]6CCC(=O)N6)cc5)c4Cl)cccc32)c(Cl)cc1CN(C)CC1CCC(C(=O)O)CC1 (stereo partly shown) [Compound 47]
6.18	COc1cc(Cn2ncc3c(-c4cccc(-c5ccc(CNC[C@@H]6CCC(=O)N6)c(C)c5)c4Cl)cccc32)c(Cl)cc1CN1CC[C@@H](C(=O)O)C1 [Compound 48]
6.07	COc1cc(Cn2ncc3c(-c4cccc(-c5ccc(CNC[C@@H]6CCC(=O)N6)c(Cl)c5)c4Cl)cccc32)c(Cl)cc1CN1CC[C@@H](C(=O)O)C1 [Compound 49]
6.16	COc1cc(Cn2ncc3c(-c4cccc(-c5ccc(CNC[C@@H]6CCC(=O)N6)c(OC(F)(F)F)c5)c4Cl)cccc32)c(Cl)cc1CN1CC[C@@H](C(=O)O)C1 [Compound 51]
7.04	COc1cc(-c2cccc(-c3cccc4c3cnn4Cc3cc(OC)c(CN4CC[C@@H](C(=O)O)C4)cc3Cl)c2Cl)ccc1CNC[C@@H]1CCC(=O)N1 [Compound 52]
7.62	COc1cc(-c2cccc(-c3cccc4c3cnn4Cc3cc(OC)c(CN[C@@H](CO)C(=O)O)cc3Cl)c2Cl)ccc1CNC[C@@H]1CCC(=O)N1 [Compound 53]
